# Experimental data reported in US9296725B2, “Heterocyclyl pyrimidine analogues as TYK2 inhibitors” (Cellzome Limited, priority 2012, dated 2016).
# Read-outs that look alike come from different tables or passages of the source.
# Tests used:
# TYK2 = target: T1, TYK2 (Homo sapiens, UniProt P29597); experiment: Kinobeads assay, TYK2 (competition binding in mixed Molt4/Ramos cell lysate, dot blot detection)
# T1 construct: endogenous in cells; host or cells: Molt4 (ATCC CRL-1582) and Ramos (ATCC CRL-1596), mixed lysate 1:2
# T1 sequence (P29597 whole entry): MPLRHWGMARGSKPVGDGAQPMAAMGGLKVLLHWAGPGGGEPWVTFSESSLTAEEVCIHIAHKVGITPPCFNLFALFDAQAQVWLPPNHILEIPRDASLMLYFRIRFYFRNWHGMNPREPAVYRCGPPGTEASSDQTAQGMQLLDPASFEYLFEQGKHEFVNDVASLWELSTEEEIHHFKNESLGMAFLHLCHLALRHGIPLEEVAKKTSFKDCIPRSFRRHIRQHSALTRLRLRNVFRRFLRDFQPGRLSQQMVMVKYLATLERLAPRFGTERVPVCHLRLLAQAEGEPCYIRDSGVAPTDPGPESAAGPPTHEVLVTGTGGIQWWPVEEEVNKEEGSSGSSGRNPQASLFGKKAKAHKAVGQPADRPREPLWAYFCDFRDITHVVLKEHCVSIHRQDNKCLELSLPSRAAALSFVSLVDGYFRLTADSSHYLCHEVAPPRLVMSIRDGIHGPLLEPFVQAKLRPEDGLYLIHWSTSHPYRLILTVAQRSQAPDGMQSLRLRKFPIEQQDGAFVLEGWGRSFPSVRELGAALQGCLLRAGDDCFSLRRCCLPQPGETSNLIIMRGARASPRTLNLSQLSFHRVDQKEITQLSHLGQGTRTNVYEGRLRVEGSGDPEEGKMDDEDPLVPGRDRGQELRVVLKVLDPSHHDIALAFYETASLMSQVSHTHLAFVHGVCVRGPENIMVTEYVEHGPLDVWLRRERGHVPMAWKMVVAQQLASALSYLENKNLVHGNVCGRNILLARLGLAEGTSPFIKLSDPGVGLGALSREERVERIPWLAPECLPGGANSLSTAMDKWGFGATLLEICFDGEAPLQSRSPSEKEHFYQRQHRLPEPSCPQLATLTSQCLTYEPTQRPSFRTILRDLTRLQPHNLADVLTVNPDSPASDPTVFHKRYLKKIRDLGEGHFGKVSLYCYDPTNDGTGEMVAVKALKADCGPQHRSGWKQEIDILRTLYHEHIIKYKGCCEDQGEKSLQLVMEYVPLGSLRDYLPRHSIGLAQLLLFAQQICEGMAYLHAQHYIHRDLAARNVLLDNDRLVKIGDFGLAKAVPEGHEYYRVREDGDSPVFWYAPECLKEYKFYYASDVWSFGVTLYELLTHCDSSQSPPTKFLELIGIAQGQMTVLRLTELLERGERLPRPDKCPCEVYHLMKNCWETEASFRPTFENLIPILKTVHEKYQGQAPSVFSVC
# In short: (§1)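 Competition binding: compound dilutions (1:3 series, 9 steps) plus immobilized aminopyrido-pyrimidine beads incubated 3 h in the cold with mixed Molt4/Ramos lysate (1:2) at 10 mg/mL protein. Bead-bound JAK2/TYK2 eluted and quantified by antibody dot blot with infrared detection; IC50 from dose-response curves.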
# JAK2 = target: T2, JAK2 (Homo sapiens, UniProt O60674); experiment: Kinobeads assay, JAK2 (competition binding in mixed Molt4/Ramos cell lysate, dot blot detection); conditions: read-out: JAK2 Band (Kinobeads assay potency, IC50)
# T2 construct: endogenous in cells; host or cells: Molt4 (ATCC CRL-1582) and Ramos (ATCC CRL-1596), mixed lysate 1:2
# T2 sequence (O60674 whole entry): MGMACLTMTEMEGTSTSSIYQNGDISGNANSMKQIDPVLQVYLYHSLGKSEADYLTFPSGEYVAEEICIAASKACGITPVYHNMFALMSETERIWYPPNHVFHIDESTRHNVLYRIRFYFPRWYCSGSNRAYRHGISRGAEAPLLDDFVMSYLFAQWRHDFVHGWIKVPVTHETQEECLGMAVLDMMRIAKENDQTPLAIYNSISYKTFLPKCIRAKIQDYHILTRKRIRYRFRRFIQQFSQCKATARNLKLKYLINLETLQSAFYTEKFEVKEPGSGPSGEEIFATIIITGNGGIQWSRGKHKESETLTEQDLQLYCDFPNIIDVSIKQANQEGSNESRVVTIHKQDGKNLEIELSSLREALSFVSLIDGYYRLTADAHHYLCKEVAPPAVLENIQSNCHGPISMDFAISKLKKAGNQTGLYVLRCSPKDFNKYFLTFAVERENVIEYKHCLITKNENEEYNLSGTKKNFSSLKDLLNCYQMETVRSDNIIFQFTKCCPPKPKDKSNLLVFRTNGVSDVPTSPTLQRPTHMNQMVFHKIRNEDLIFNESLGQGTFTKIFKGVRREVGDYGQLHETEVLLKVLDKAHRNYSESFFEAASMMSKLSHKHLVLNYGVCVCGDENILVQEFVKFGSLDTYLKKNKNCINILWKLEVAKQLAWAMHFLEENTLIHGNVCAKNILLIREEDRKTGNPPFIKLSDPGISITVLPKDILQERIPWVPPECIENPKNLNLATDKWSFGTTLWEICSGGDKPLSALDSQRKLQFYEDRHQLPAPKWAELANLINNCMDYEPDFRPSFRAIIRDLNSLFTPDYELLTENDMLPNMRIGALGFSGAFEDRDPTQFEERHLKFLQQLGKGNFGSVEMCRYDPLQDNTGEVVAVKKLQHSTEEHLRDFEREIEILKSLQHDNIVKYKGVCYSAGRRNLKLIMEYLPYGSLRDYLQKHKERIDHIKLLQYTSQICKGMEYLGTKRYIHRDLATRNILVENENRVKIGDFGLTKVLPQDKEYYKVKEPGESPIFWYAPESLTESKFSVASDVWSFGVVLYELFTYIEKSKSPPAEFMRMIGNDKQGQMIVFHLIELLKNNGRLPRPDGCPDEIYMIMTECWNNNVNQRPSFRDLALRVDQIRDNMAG
# In short: as §1
# [1] = Kinobeads assay, Molt4/Ramos lysate, read-out: TYK2 Band (Kinobeads assay potency, IC50)
IC50 (TYK2; [1]) [nM],IC50 (JAK2) [nM],IC50 (TYK2; read-out: TYK2 IC50) [nM],SMILES
100 to 1000,1000 to 10000,–,CNS(=O)(=O)c1cccc(CNc2nc(Nc3cnn(C)c3)ncc2Cl)c1 [Example I-200]
10 to 100,> 10000,–,O=C(Cn1cc(Nc2nccc(NCc3c(F)cc(F)cc3F)n2)cn1)NCC(F)(F)F [Example I-86]
≤ 10,100 to 1000,–,CN(C)C(=O)Cn1cc(Nc2ncc(Cl)c(NCc3c(F)ccc(F)c3F)n2)cn1 [Example I-360]
10 to 100,1000 to 10000,–,CNC(=O)Cn1cc(Nc2ncc(Cl)c(NCc3c(F)cccc3F)n2)cn1 [Example I-229]
10 to 100,1000 to 10000,–,O=C(Cn1cc(Nc2nccc(NCc3c(F)cc(F)cc3F)n2)cn1)N[C@@H]1CCOC1 [Example I-137]
≤ 10,1000 to 10000,–,O=C(Cn1cc(Nc2nccc(NCc3c(F)ccc(F)c3F)n2)cn1)NC1CC1 [Example I-144]
10 to 100,1000 to 10000,–,OCCn1cc(Nc2ncc(F)c(NCc3ccccc3F)n2)cn1 [Example I-205]
100 to 1000,1000 to 10000,–,O=C(Cn1cc(Nc2ncc(Cl)c(NCc3ccccc3)n2)cn1)N1CCC2(CC1)COC2 [Example I-239]
≤ 10,1000 to 10000,–,O=C(Cn1cc(Nc2nccc(NCc3c(F)cccc3F)n2)cn1)N1CCOCC1 [Example I-28]
10 to 100,1000 to 10000,–,COc1ccc(F)c(CNc2ccnc(Nc3cnn(CC(=O)NCC(F)F)c3)n2)c1F [Example I-127]
10 to 100,100 to 1000,–,Cc1cnc(Nc2cnn(CC(F)F)c2)nc1NCc1c(F)ccc(F)c1F [Example I-87]
100 to 1000,100 to 1000,–,CS(=O)(=O)c1cccc(CNc2nc(Nc3cnn(CC(N)=O)c3)ncc2Cl)c1 [Example I-439]
10 to 100,1000 to 10000,–,N#C[C@H]1CCN(C(=O)Cn2cc(Nc3ncc(Cl)c(NCc4ccccc4)n3)cn2)C1 [Example I-270]
100 to 1000,100 to 1000,–,CN(C)C(=O)Cn1cc(Nc2ncc(Cl)c(NCc3ccccc3S(C)(=O)=O)n2)cn1 [Example I-452]
10 to 100,> 10000,–,CC(NC(=O)Cn1cc(Nc2nccc(NCc3c(F)cc(F)cc3F)n2)cn1)C1CCOC1 (centres unmarked) [Example I-105]
100 to 1000,100 to 1000,–,NC(=O)Cn1cc(Nc2ncc(Cl)c(NCc3cc(Br)cc(F)c3F)n2)cn1 [Example I-261]
10 to 100,1000 to 10000,–,CC(C)NC(=O)Cn1cc(Nc2nccc(NCc3c(Cl)ccc(F)c3F)n2)cn1 [Example I-93]
10 to 100,1000 to 10000,–,CC1(C)CN(C(=O)Cn2cc(Nc3ncc(F)c(NCc4c(F)cc(F)cc4F)n3)cn2)CCO1 [Example I-39]
10 to 100,100 to 1000,–,O=C(Cn1cc(Nc2ncc(Cl)c(NCc3ccccc3)n2)cn1)N1CC2CCC1CN2 (centres unmarked) [Example I-194]

IC50 (TYK2; [1]) [nM],IC50 (JAK2) [nM],IC50 (TYK2; read-out: TYK2 IC50) [nM],SMILES
10 to 100,> 10000,–,CC(C)NC(=O)Cn1cc(Nc2ncc(Cl)c(NCc3c(F)cc(F)cc3F)n2)cn1 [Example I-393]
100 to 1000,1000 to 10000,–,CS(=O)(=O)NCc1cccc(CNc2nc(Nc3cnn(CC(=O)N4CCC[C@@H]4C#N)c3)ncc2Cl)c1 [Example I-399]
100 to 1000,> 10000,–,Cn1cc(Nc2nccc(NCc3c(F)cccc3F)n2)cn1 [Example I-312]
10 to 100,100 to 1000,–,CNC(=O)Cn1cc(Nc2ncc(Cl)c(NCc3cc(F)ccc3S(C)(=O)=O)n2)cn1 [Example I-438]
10 to 100,1000 to 10000,–,C[C@H](CO)NC(=O)Cn1cc(Nc2nccc(NCc3c(F)ccc(F)c3F)n2)cn1 [Example I-143]
10 to 100,1000 to 10000,–,CNC(=O)Cn1cc(Nc2ncc(Cl)c(NCc3c(F)cc(F)cc3F)n2)cn1 [Example I-388]
100 to 1000,1000 to 10000,–,CCOC(=O)Cn1cc(Nc2ncc(Cl)c(NCc3ccccc3)n2)cn1 [Example I-225]
10 to 100,> 10000,–,CC(NC(=O)Cn1cc(Nc2nccc(NCc3c(F)cc(F)cc3F)n2)cn1)C(F)F (centres unmarked) [Example I-149]
10 to 100,100 to 1000,–,CNC(=O)Cn1cc(Nc2ncc(Cl)c(NCc3cc(S(C)(=O)=O)ccc3OC)n2)cn1 [Example I-444]
10 to 100,1000 to 10000,–,NS(=O)(=O)c1ccc(F)c(CNc2nc(Nc3cnn(CCO)c3)ncc2Cl)c1 [Example I-226]
100 to 1000,1000 to 10000,–,Cc1noc(Cn2cc(Nc3ncc(Cl)c(NCc4c(F)cccc4F)n3)cn2)n1 [Example I-483]
10 to 100,1000 to 10000,–,C[C@@H](CO)NC(=O)Cn1cc(Nc2nccc(NCc3c(F)cccc3F)n2)cn1 [Example I-151]
100 to 1000,1000 to 10000,–,NS(=O)(=O)c1cccc(CNc2nc(Nc3cnn(CCO)c3)ncc2Cl)c1 [Example I-199]
100 to 1000,1000 to 10000,–,CC(C)Oc1cccc(CNc2nc(Nc3cnn(CCO)c3)ncc2Cl)c1 [Example I-334]
10 to 100,10 to 100,–,Cc1cnc(Nc2cnn(CC(=O)N3CCOCC3)c2)nc1NCc1cc(F)cc(F)c1 [Example I-348]
10 to 100,1000 to 10000,–,C[C@H]1COCCN1C(=O)Cn1cc(Nc2nccc(NCc3c(F)cc(F)cc3F)n2)cn1 [Example I-52]
10 to 100,100 to 1000,–,Cc1cnc(Nc2cnn(CC(=O)NC3CC3)c2)nc1NCc1cc(F)cc(F)c1 [Example I-344]
≤ 10,100 to 1000,–,COc1ccc(Cl)c(CNc2ccnc(Nc3cnn(CC(=O)N[C@@H](C)CO)c3)n2)c1F [Example I-122]
10 to 100,10 to 100,–,Cc1cnc(Nc2cnn(C)c2)nc1NCc1cc(F)cc(F)c1F [Example I-342]

IC50 (TYK2; [1]) [nM],IC50 (JAK2) [nM],IC50 (TYK2; read-out: TYK2 IC50) [nM],SMILES
10 to 100,100 to 1000,–,OCCn1cc(Nc2ncc(Cl)c(NCc3c(F)cc(F)cc3F)n2)cn1 [Example I-15]
≤ 10,1000 to 10000,–,COc1ccc(F)c(CNc2ccnc(Nc3cnn(CC(=O)N4CCOCC4)c3)n2)c1F [Example I-117]
10 to 100,1000 to 10000,–,O=C(Cn1cc(Nc2nccc(NCc3c(F)cc(F)cc3F)n2)cn1)NC1CC1 [Example I-80]
10 to 100,1000 to 10000,–,CNC(=O)Cn1cc(Nc2ncc(F)c(NCc3cc(S(C)(=O)=O)ccc3OC)n2)cn1 [Example I-448]
10 to 100,100 to 1000,–,CNC(=O)Cn1cc(Nc2ncc(C)c(NCc3c(F)cccc3F)n2)cn1 [Example I-419]
10 to 100,> 10000,< 100,CC(C)NC(=O)Cn1cc(Nc2nccc(NCc3cccc(OC(F)F)c3)n2)cn1 [Example I-67]
100 to 1000,100 to 1000,–,Fc1ccc(F)c(CNc2nc(Nc3cnn(C(F)F)c3)ncc2Cl)c1 [Example I-223]
10 to 100,1000 to 10000,–,Cc1cccc(F)c1CNc1ccnc(Nc2cnn(C)c2)n1 [Example I-437]
10 to 100,1000 to 10000,–,O=C(Cn1cc(Nc2nccc(NCc3c(F)cc(F)cc3F)n2)cn1)N1CCOCC1 [Example I-27]
100 to 1000,1000 to 10000,–,CC(C(N)=O)n1cc(Nc2ncc(Cl)c(NCc3ccccc3)n2)cn1 (centres unmarked) [Example I-285]
10 to 100,100 to 1000,–,OCCn1cc(Nc2ncc(Cl)c(NCc3ccc(O)cc3)n2)cn1 [Example I-219]
10 to 100,1000 to 10000,–,CN(C)C(=O)Cn1cc(Nc2ncc(Cl)c(NCc3c(F)cc(F)cc3F)n2)cn1 [Example I-16]
10 to 100,100 to 1000,–,Cn1cc(Nc2ncc(F)c(NCc3c(Cl)ccc(Cl)c3F)n2)cn1 [Example I-457]
10 to 100,1000 to 10000,–,Cn1cc(Nc2ncc(Cl)c(NCc3c(F)cccc3C(F)(F)F)n2)cn1 [Example I-118]
10 to 100,1000 to 10000,–,NC(=O)Cn1cc(Nc2nccc(NCc3c(F)cccc3F)n2)cn1 [Example I-313]
≤ 10,1000 to 10000,–,Cc1cnc(Nc2cnn(CC(=O)N3CCOC(C)(C)C3)c2)nc1NCc1c(F)cc(F)cc1F [Example I-34]
≤ 10,1000 to 10000,–,COc1ccc(F)c(CNc2nc(Nc3cnn(CC(=O)N(C)C)c3)ncc2F)c1F [Example I-13]
100 to 1000,1000 to 10000,–,OCCn1cc(Nc2ncc(Cl)c(NCc3cccnc3)n2)cn1 [Example I-255]
